Measurements as given in the supplement of paper PMC10307832.

Legend:
Assay in all cases: relative viability (nuclei count vs DMSO), 5 days (fraction); higher = more cells survive
[1] = system: NCI-H2342
Summary of the method: (§1)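 Relative viability is defined as nuclei in treated wells over nuclei in vehicle wells. Duplicate plates were run and medians reported. Lung cancer cell lines in 1536-well plates were dosed by pin tool one day after seeding, with one drug or with a fixed anchor-drug dose plus five library-drug doses (not always all listed) in √10 steps, and nuclei were counted after 5 days.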

[2] = system: HCC-78
Summary of the method: as §1

[3] = system: NCI-H1755
Summary of the method: as §1

[4] = system: SK-LU-1
Summary of the method: as §1

[5] = system: UMC-11
Summary of the method: as §1

[6] = system: HCC-366
Summary of the method: as §1

[7] = system: LCLC-97TM1
Summary of the method: as §1

[8] = system: NCI-H1792
Summary of the method: as §1

[9] = system: NCI-H358
Summary of the method: as §1

[10] = system: NCI-H2170
Summary of the method: as §1

[11] = system: NCI-H460
Summary of the method: as §1

[12] = system: LXF-289
Summary of the method: as §1

[13] = system: EPLC-272H
Summary of the method: as §1

[14] = system: NCI-H2085
Summary of the method: as §1

[15] = system: NCI-H1915
Summary of the method: as §1

[16] = system: LC-2-ad
Summary of the method: as §1

[17] = system: COR-L 105
Summary of the method: as §1

[18] = system: NCI-H1975
Summary of the method: as §1

[19] = system: A-427
Summary of the method: as §1

[20] = system: SW 900
Summary of the method: as §1

[21] = system: NCI-H1793
Summary of the method: as §1

[22] = system: LU99A
Summary of the method: as §1

[23] = system: HOP-62
Summary of the method: as §1

[24] = system: NCI-H1944
Summary of the method: as §1

Work on `COc1cc(N2CCC(C(N)=O)CC2)ccc1Nc1nc(N)c(Cl)c(Nc2ccccc2S(=O)(=O)C(C)C)n1` [HG-5-88-01] + Nc1ncn([C@H]2C[C@H](O)[C@@H](CO)O2)c(=O)n1 [Decitabine] (partner 2 µM) yielded a relative viability ([1]; first compound 0.04 µM) of 0.751, a relative viability ([1]; first compound 0.1265 µM) of 0.808 and a relative viability ([1]; first compound 0.4 µM) of 0.808. The relative viability ([1]; first compound 4 µM) was 0.801, the relative viability ([2]; first compound 0.04 µM) was 0.696 and the relative viability ([2]; first compound 0.1265 µM) was 0.598. For the same compound, the relative viability ([2]; first compound 0.4 µM) was 0.62, the relative viability ([2]; first compound 1.265 µM) was 0.411 and the relative viability ([2]; first compound 4 µM) was 0.432. The relative viability ([3]; first compound 0.04 µM) was 0.739, the relative viability ([3]; first compound 0.1265 µM) was 0.732 and the relative viability ([3]; first compound 0.4 µM) was 0.829. It also gave a relative viability ([3]; first compound 1.265 µM) of 0.688, a relative viability ([3]; first compound 4 µM) of 0.836 and a relative viability ([4]; first compound 0.04 µM) of 0.525. For the same compound, the relative viability ([4]; first compound 0.1265 µM) was 0.595, the relative viability ([4]; first compound 0.4 µM) was 0.598 and the relative viability ([4]; first compound 1.265 µM) was 0.598. For the same compound, the relative viability ([4]; first compound 4 µM) was 0.344, the relative viability ([5]; first compound 0.04 µM) was 0.638 and the relative viability ([5]; first compound 0.1265 µM) was 0.706. It also gave a relative viability ([5]; first compound 0.4 µM) of 0.604, a relative viability ([5]; first compound 1.265 µM) of 0.526 and a relative viability ([5]; first compound 4 µM) of 0.672. It also gave a relative viability ([6]; first compound 0.04 µM) of 0.367, a relative viability ([6]; first compound 0.1265 µM) of 0.357 and a relative viability ([6]; first compound 0.4 µM) of 0.436. It also gave a relative viability ([6]; first compound 1.265 µM) of 0.338, a relative viability ([6]; first compound 4 µM) of 0.343 and a relative viability ([7]; first compound 0.04 µM) of 0.21. It also gave a relative viability ([7]; first compound 0.1265 µM) of 0.219, a relative viability ([7]; first compound 0.4 µM) of 0.209 and a relative viability ([7]; first compound 1.265 µM) of 0.229. It also gave a relative viability ([7]; first compound 4 µM) of 0.128, a relative viability ([8]; first compound 0.04 µM) of 0.628 and a relative viability ([8]; first compound 0.1265 µM) of 0.452. For the same compound, the relative viability ([8]; first compound 0.4 µM) was 0.579, the relative viability ([8]; first compound 1.265 µM) was 0.564 and the relative viability ([8]; first compound 4 µM) was 0.545. The relative viability ([9]; first compound 0.04 µM) was 0.208, the relative viability ([9]; first compound 0.1265 µM) was 0.229 and the relative viability ([9]; first compound 0.4 µM) was 0.285. It also gave a relative viability ([9]; first compound 1.265 µM) of 0.192, a relative viability ([9]; first compound 4 µM) of 0.125 and a relative viability ([10]; first compound 0.04 µM) of 0.461. The relative viability ([10]; first compound 0.1265 µM) was 0.479, the relative viability ([10]; first compound 0.4 µM) was 0.509 and the relative viability ([10]; first compound 1.265 µM) was 0.439. For the same compound, the relative viability ([10]; first compound 4 µM) was 0.486, the relative viability ([11]; first compound 0.04 µM) was 0.478 and the relative viability ([11]; first compound 0.1265 µM) was 0.493. The relative viability ([11]; first compound 0.4 µM) was 0.494, the relative viability ([11]; first compound 1.265 µM) was 0.578 and the relative viability ([11]; first compound 4 µM) was 0.419. It also gave a relative viability ([12]; first compound 0.04 µM) of 0.324, a relative viability ([12]; first compound 0.1265 µM) of 0.402 and a relative viability ([12]; first compound 0.4 µM) of 0.464. For the same compound, the relative viability ([12]; first compound 1.265 µM) was 0.423, the relative viability ([12]; first compound 4 µM) was 0.427 and the relative viability ([13]; first compound 0.04 µM) was 0.32. The relative viability ([13]; first compound 0.1265 µM) was 0.371, the relative viability ([13]; first compound 0.4 µM) was 0.47 and the relative viability ([13]; first compound 1.265 µM) was 0.266. It also gave a relative viability ([13]; first compound 4 µM) of 0.117, a relative viability ([14]; first compound 0.04 µM) of 0.6 and a relative viability ([14]; first compound 0.1265 µM) of 0.625. For the same compound, the relative viability ([14]; first compound 0.4 µM) was 0.582, the relative viability ([14]; first compound 1.265 µM) was 0.544 and the relative viability ([14]; first compound 4 µM) was 0.607. It also gave a relative viability ([15]; first compound 0.04 µM) of 0.254, a relative viability ([15]; first compound 0.1265 µM) of 0.279 and a relative viability ([15]; first compound 0.4 µM) of 0.275. It also gave a relative viability ([15]; first compound 1.265 µM) of 0.248, a relative viability ([15]; first compound 4 µM) of 0.254 and a relative viability ([16]; first compound 0.04 µM) of 0.782. The relative viability ([16]; first compound 0.1265 µM) was 0.719, the relative viability ([16]; first compound 0.4 µM) was 0.771 and the relative viability ([16]; first compound 1.265 µM) was 0.814. The relative viability ([16]; first compound 4 µM) was 0.855, the relative viability ([17]; first compound 0.04 µM) was 0.569 and the relative viability ([17]; first compound 0.1265 µM) was 0.706. For the same compound, the relative viability ([17]; first compound 0.4 µM) was 0.628, the relative viability ([17]; first compound 1.265 µM) was 0.582 and the relative viability ([17]; first compound 4 µM) was 0.577. The relative viability ([18]; first compound 0.04 µM) was 0.409, the relative viability ([18]; first compound 0.1265 µM) was 0.474 and the relative viability ([18]; first compound 0.4 µM) was 0.382. For the same compound, the relative viability ([18]; first compound 1.265 µM) was 0.403, the relative viability ([18]; first compound 4 µM) was 0.273 and the relative viability ([19]; first compound 0.04 µM) was 0.549. For the same compound, the relative viability ([19]; first compound 0.1265 µM) was 0.598, the relative viability ([19]; first compound 0.4 µM) was 0.603 and the relative viability ([19]; first compound 1.265 µM) was 0.585. The relative viability ([19]; first compound 4 µM) was 0.547, the relative viability ([20]; first compound 0.04 µM) was 0.419 and the relative viability ([20]; first compound 0.1265 µM) was 0.441. For the same compound, the relative viability ([20]; first compound 0.4 µM) was 0.528, the relative viability ([20]; first compound 1.265 µM) was 0.492 and the relative viability ([20]; first compound 4 µM) was 0.436. It also gave a relative viability ([21]; first compound 0.04 µM) of 0.554, a relative viability ([21]; first compound 0.1265 µM) of 0.518 and a relative viability ([21]; first compound 0.4 µM) of 0.701. It also gave a relative viability ([21]; first compound 1.265 µM) of 0.408, a relative viability ([21]; first compound 4 µM) of 0.499 and a relative viability ([22]; first compound 0.04 µM) of 0.896. For the same compound, the relative viability ([22]; first compound 0.1265 µM) was 0.929, the relative viability ([22]; first compound 0.4 µM) was 0.915 and the relative viability ([22]; first compound 1.265 µM) was 0.93. The relative viability ([22]; first compound 4 µM) was 0.839, the relative viability ([23]; first compound 0.04 µM) was 0.209 and the relative viability ([23]; first compound 0.1265 µM) was 0.226. For the same compound, the relative viability ([23]; first compound 0.4 µM) was 0.232, the relative viability ([23]; first compound 1.265 µM) was 0.252 and the relative viability ([23]; first compound 4 µM) was 0.28. The relative viability ([24]; first compound 0.04 µM) was 0.398, the relative viability ([24]; first compound 0.1265 µM) was 0.417 and the relative viability ([24]; first compound 0.4 µM) was 0.554. The relative viability ([24]; first compound 1.265 µM) was 0.457 and the relative viability ([24]; first compound 4 µM) was 0.514.
